Assay results as given in the supplement of paper PMC10307832.

Tests used:
Experiment in all cases: relative viability (nuclei count vs DMSO), 5 days (fraction); higher = more cells survive
Apatinib + Navitoclax = compound: N#CC1(c2ccc(NC(=O)c3cccnc3NCc3ccncc3)cc2)CCCC1 [Apatinib] + CC1(C)CCC(c2ccc(Cl)cc2)=C(CN2CCN(c3ccc(C(=O)NS(=O)(=O)c4ccc(N[C@H](CCN5CCOCC5)CSc5ccccc5)c(S(=O)(=O)C(F)(F)F)c4)cc3)CC2)C1 [Navitoclax] (partner 0.5 µM)
Outline: (§1)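 Lung cancer cell lines were pin-tool dosed in 1536-well plates on the day after seeding, with either a lone drug or a fixed anchor-drug dose plus five library-drug doses (not always all listed) in √10 steps. Nuclei were counted on 4× images after 5 days. Relative viability is the ratio of treated-well to vehicle-well nuclei counts, with each value a median of duplicate plates.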

Apatinib + Trametinib = compound: N#CC1(c2ccc(NC(=O)c3cccnc3NCc3ccncc3)cc2)CCCC1 [Apatinib] + CC(=O)Nc1cccc(-n2c(=O)n(C3CC3)c(=O)c3c(Nc4ccc(I)cc4F)n(C)c(=O)c(C)c32)c1 [Trametinib] (partner 0.02 µM)
Outline: as §1

Metformin + Foretinib = compound: CN(C)C(=N)NC(=N)N [Metformin] + COc1cc2c(Oc3ccc(NC(=O)C4(C(=O)Nc5ccc(F)cc5)CC4)cc3F)ccnc2cc1OCCCN1CCOCC1 [Foretinib] (partner 0.25 µM)
Outline: as §1

Metformin + Vorinostat = compound: CN(C)C(=N)NC(=N)N [Metformin] + O=C(CCCCCCC(=O)Nc1ccccc1)NO [Vorinostat] (partner 1 µM)
Outline: as §1

Row | Cell Line | relative viability (Apatinib + Navitoclax; first compound 0.08 µM) | relative viability (Apatinib + Navitoclax; first compound 0.253 µM) | relative viability (Apatinib + Navitoclax; first compound 0.8 µM) | relative viability (Apatinib + Navitoclax; first compound 2.53 µM) | relative viability (Apatinib + Navitoclax; first compound 8 µM) | relative viability (Apatinib + Trametinib; first compound 0.08 µM) | relative viability (Apatinib + Trametinib; first compound 0.253 µM) | relative viability (Apatinib + Trametinib; first compound 0.8 µM) | relative viability (Apatinib + Trametinib; first compound 2.53 µM) | relative viability (Apatinib + Trametinib; first compound 8 µM) | relative viability (Metformin + Foretinib; first compound 10 µM) | relative viability (Metformin + Foretinib; first compound 31.62 µM) | relative viability (Metformin + Foretinib; first compound 100 µM) | relative viability (Metformin + Foretinib; first compound 316.23 µM) | relative viability (Metformin + Foretinib; first compound 1000 µM) | relative viability (Metformin + Vorinostat; first compound 10 µM) | relative viability (Metformin + Vorinostat; first compound 31.62 µM) | relative viability (Metformin + Vorinostat; first compound 100 µM) | relative viability (Metformin + Vorinostat; first compound 316.23 µM) | relative viability (Metformin + Vorinostat; first compound 1000 µM)
1 | H3255 | 0.512 | 0.62 | 0.34 | 0.52 | 0.607 | 0.655 | 0.588 | 0.669 | 0.597 | 0.535 | 0.863 | 0.96 | 0.91 | 0.747 | 0.877 | 0.627 | 0.921 | 0.758 | 0.811 | 0.929
2 | LU99A | 0.876 | 0.851 | 0.745 | 0.721 | 0.732 | 0.58 | 0.552 | 0.543 | 0.486 | 0.29 | 0.57 | 0.676 | 0.643 | 0.596 | 0.677 | 0.417 | 0.579 | 0.411 | 0.397 | 0.479
3 | EPLC-272H | 1.06 | 1.05 | 0.961 | 1.04 | 0.731 | 0.297 | 0.264 | 0.301 | 0.321 | 0.234 | 0.864 | 0.909 | 0.978 | 0.784 | 1.09 | 0.529 | 0.352 | 0.383 | 0.4 | 0.579
4 | EMC-BAC-2 | 1.2 | 1.13 | 1.14 | 1.07 | 0.974 |  | 0.869 | 0.887 | 0.818 | 0.799 | 1.03 | 1.1 | 1.09 | 0.976 | 1.09 | 0.474 | 0.417 |  | 0.492 | 0.37
5 | NCI-H1395 | 1.1 | 1.13 | 1.09 | 1.02 | 0.957 | 1.03 | 1.05 | 0.915 | 0.965 | 0.965 | 0.965 | 1 | 1.04 | 0.883 | 0.997 | 0.855 | 1.24 | 0.819 | 0.868 | 0.414
6 | NCI-H1355 | 0.944 | 0.929 | 0.848 | 0.815 | 0.65 | 0.422 | 0.444 | 0.354 | 0.367 | 0.314 | 0.941 | 1.05 | 0.998 | 0.972 | 0.99 | 0.597 | 0.522 | 0.632 | 0.589 | 0.609
7 | RERF-LC-KJ | 0.931 | 1.04 | 0.874 | 0.557 | 0.997 | 0.89 | 0.849 | 0.891 | 0.758 | 0.711 | 0.775 | 0.796 | 0.804 | 0.763 | 0.935 | 0.564 | 0.745 | 0.634 | 0.534 | 0.612
8 | SK-LU-1 | 0.965 | 1.35 | 0.705 | 0.638 | 0.631 | 0.498 | 0.541 | 0.545 | 0.495 | 0.446 | 0.807 | 0.77 | 0.769 | 0.69 | 0.79 | 0.723 | 0.645 | 0.759 | 0.667 | 0.766
9 | HARA | 1.15 | 1.18 | 1.1 | 1.13 | 1.07 | 0.736 | 0.829 | 0.673 |  | 0.6 |  | 1.03 | 1.21 | 1 | 1.09 | 0.419 | 0.587 | 0.39 | 0.382 | 0.445
10 | HCC-366 | 1.1 | 1.08 | 1.04 | 0.961 | 1.01 | 0.336 | 0.393 | 0.369 | 0.314 | 0.273 | 1.09 | 0.928 | 0.881 | 0.955 | 0.943 | 0.201 | 0.431 | 0.282 | 0.326 | 0.472
11 | HCC-827 | 1.07 | 1.06 | 0.956 | 0.998 | 0.781 | 0.525 | 0.533 | 0.492 | 0.519 | 0.425 |  | 0.899 | 0.974 | 0.807 | 0.889 | 0.483 | 0.84 | 1.02 | 0.776 | 0.943
12 | NCI-H2126 | 0.9 | 0.859 | 0.826 | 0.811 | 0.802 | 0.605 | 0.562 | 0.569 | 0.538 | 0.415 | 1.12 | 1.18 | 1.22 | 0.862 | 1.15 | 0.739 | 0.704 | 0.752 | 0.694 | 0.872
13 | LK-2 | 0.879 | 0.857 | 0.885 | 0.769 | 0.634 | 0.605 | 0.671 | 0.75 | 0.793 | 0.395 | 1.72 | 1.93 | 1.79 | 1.28 |  | 0.232 | 0.264 | 0.273 | 0.339 | 0.397
14 | COR-L23 | 1.05 | 1.02 | 0.871 | 0.885 | 0.827 | 0.721 | 0.666 | 0.574 | 0.466 | 0.376 | 0.88 | 0.861 | 0.863 | 0.836 | 0.975 | 0.312 | 0.304 | 0.406 | 0.288 | 0.362
15 | NCI-H1915 | 0.838 | 0.819 | 0.778 | 0.783 | 0.732 | 0.321 | 0.315 | 0.311 | 0.302 | 0.286 |  | 1.04 | 1.15 | 1.07 | 1.18 |  | 0.499 | 0.498 | 0.46 | 0.517
16 | NCI-H2228 | 1.02 | 0.988 | 0.738 | 0.708 | 0.751 | 0.405 | 0.568 | 0.646 | 0.416 | 0.549 | 0.804 | 0.862 | 1.09 | 0.671 | 0.768 | 0.843 | 0.672 | 0.825 | 0.597 | 0.635
